Data on 65 sequences can be found in the supplement of paper PMC11208160.
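Also: IS621 bridge recombinase in Escherichia coli cells against a fixed T5 target plasmid.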

This data set in a line: recombinant UMI read abundance after kanamycin selection (control-corrected) (log10(CPM+1)); higher = more efficient recombination; extreme values may be limits of the assay; sequences stand for … in AGTGCAGAGAAAATCGGCCAGTTTTCTCTGCCTGCAGTCCGCATGCCGTGGGACCCCTTGGGTTCTAACCTGTTGCCTAGATTTATGCAGCGGACTGCCTTTCTCCCAAAGTGATAAACCGG…AGGTTGGTTTCACT; site = the 11-nt donor. The method, then: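 Pooled E. coli donor-specificity screen for the IS621 bridge recombinase. Each library member carries a reprogrammed 11-nt donor and a full-length LE bridge RNA expressed in cis from the natural promoter, with a paired donor-binding loop (8-nt LDG + 4-nt RDG) and a target-binding loop fixed to T5. It is co-electroporated with a T5 target plasmid; recombinase is induced with 0.07 mM IPTG and recombinants are selected on kanamycin. UMIs are counted as CPM, averaged over two biological replicates and corrected by the unselected control. Molecule = full bridge RNA written as DNA, built from the T5 scaffold: LDG = donor specificity nt 1-8, RDG = reverse complement of nt 8-11.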
As to “AACCTCTCATGGACCGGTTTTCCCGGTAATCCGTATTTGCC (site AACCTCTCTGG)”, the “recombinant UMI read abundance (log10)” value turned out to be 2.62.

Take “AACGAGCCATGGACCGGTTTTCCCGGTAATCCGTATTTGGC (site AACGAGCCTGC)”: the “recombinant UMI read abundance (log10)” value stood at 0.

As for “AACGATCCATGGACCGGTTTTCCCGGTAATCCGTATTTGGC (site AACGATCCTGC)”, the “recombinant UMI read abundance (log10)” value was found to be 1.07.

Take “AACGGCCCATGGACCGGTTTTCCCGGTAATCCGTATTTGTT (site AACGGCCCTAA)”: the “recombinant UMI read abundance (log10)” value was found to be 0.

Take “AACGGCCCATGGACCGGTTTTCCCGGTAATCCGTATTTGTT (site CACGGCCCTAA)”: the “recombinant UMI read abundance (log10)” value turned out to be 0.071.

For “AACGGCCCATGGACCGGTTTTCCCGGTAATCCGTATTTGTT (site GACGGCCCTAA)”, the “recombinant UMI read abundance (log10)” value came out at 0.0173.

Take “AACGGCCCATGGACCGGTTTTCCCGGTAATCCGTATTTGTT (site TACGGCCCTAA)”: the “recombinant UMI read abundance (log10)” value amounted to 0.00583.

For the sequence “AACTAAGCATGGACCGGTTTTCCCGGTAATCCGTATTTGGT (site AACTAAGCTAC)”, the “recombinant UMI read abundance (log10)” value was determined as 1.25.

For the sequence “AACTAGACATGGACCGGTTTTCCCGGTAATCCGTATTTGGG (site AACTAGACTCC)”, the “recombinant UMI read abundance (log10)” value was determined as 0.0148.

Consider “AACTAGACATGGACCGGTTTTCCCGGTAATCCGTATTTGGG (site ACCTAGACTCC)”, for which the “recombinant UMI read abundance (log10)” value was 0.0296.

Regarding “AACTAGACATGGACCGGTTTTCCCGGTAATCCGTATTTGGG (site AGCTAGACTCC)”, the “recombinant UMI read abundance (log10)” value worked out at 0.0187.

Take “AACTAGACATGGACCGGTTTTCCCGGTAATCCGTATTTGGG (site ATCTAGACTCC)”: the “recombinant UMI read abundance (log10)” value was 0.0377.

Consider “AACTAGACATGGACCGGTTTTCCCGGTAATCCGTATTTGGT (site AACTAGACTAC)”, for which the “recombinant UMI read abundance (log10)” value is 0.776.

Turning to “AACTATTCATGGACCGGTTTTCCCGGTAATCCGTATTTGTC (site AACTATTCTGA)”, the “recombinant UMI read abundance (log10)” value was 0.671.

“AACTCTACATGGACCGGTTTTCCCGGTAATCCGTATTTGAT (site AACTCTACTAT)”: the “recombinant UMI read abundance (log10)” value turned out to be 0.82.

As to “AACTGTCCATGGACCGGTTTTCCCGGTAATCCGTATTTGAT (site AACAGTCCTAT)”, the “recombinant UMI read abundance (log10)” value came out at 0.00914.

For “AACTGTCCATGGACCGGTTTTCCCGGTAATCCGTATTTGAT (site AACCGTCCTAT)”, the “recombinant UMI read abundance (log10)” value came out at 0.423.

With “AACTGTCCATGGACCGGTTTTCCCGGTAATCCGTATTTGAT (site AACGGTCCTAT)”, the “recombinant UMI read abundance (log10)” value is 0.0127.

Take “AACTGTCCATGGACCGGTTTTCCCGGTAATCCGTATTTGAT (site AACTGTCCTAT)”: the “recombinant UMI read abundance (log10)” value came to 0.173.

On to “AAGAACACATGGACCGGTTTTCCCGGTAATCCGTATTTGAT (site AAGAACACTAT)”, for which the “recombinant UMI read abundance (log10)” value was 2.22.

As for “AAGAAGACATGGACCGGTTTTCCCGGTAATCCGTATTTGCA (site AAGAAGACTTG)”, the “recombinant UMI read abundance (log10)” value came to 2.73.

Turning to “AAGAAGACATGGACCGGTTTTCCCGGTAATCCGTATTTGCA (site ACGAAGACTTG)”, the “recombinant UMI read abundance (log10)” value was 1.66.

“AAGAAGACATGGACCGGTTTTCCCGGTAATCCGTATTTGCA (site AGGAAGACTTG)”: the “recombinant UMI read abundance (log10)” value was found to be 2.2.

On to “AAGAAGACATGGACCGGTTTTCCCGGTAATCCGTATTTGCA (site ATGAAGACTTG)”, for which the “recombinant UMI read abundance (log10)” value was 1.95.

Turning to “AAGAATACATGGACCGGTTTTCCCGGTAATCCGTATTTGCA (site AAGAATACTTG)”, the “recombinant UMI read abundance (log10)” value amounted to 1.67.

As for “AAGAATACATGGACCGGTTTTCCCGGTAATCCGTATTTGCA (site CAGAATACTTG)”, the “recombinant UMI read abundance (log10)” value is 1.37.

“AAGAATACATGGACCGGTTTTCCCGGTAATCCGTATTTGCA (site GAGAATACTTG)”: the “recombinant UMI read abundance (log10)” value came out at 0.

In the case of “AAGAATACATGGACCGGTTTTCCCGGTAATCCGTATTTGCA (site TAGAATACTTG)”, the “recombinant UMI read abundance (log10)” value worked out at 1.7.

In the case of “AAGACGCCATGGACCGGTTTTCCCGGTAATCCGTATTTGAT (site AAGACGCCTAT)”, the “recombinant UMI read abundance (log10)” value turned out to be 0.386.

Turning to “AAGACTACATGGACCGGTTTTCCCGGTAATCCGTATTTGAC (site AAGACTACTGT)”, the “recombinant UMI read abundance (log10)” value amounted to 2.69.

With “AAGACTACATGGACCGGTTTTCCCGGTAATCCGTATTTGAC (site ACGACTACTGT)”, the “recombinant UMI read abundance (log10)” value came to 0.383.

Turning to “AAGACTACATGGACCGGTTTTCCCGGTAATCCGTATTTGAC (site AGGACTACTGT)”, the “recombinant UMI read abundance (log10)” value was determined as 1.33.

As for “AAGACTACATGGACCGGTTTTCCCGGTAATCCGTATTTGAC (site ATGACTACTGT)”, the “recombinant UMI read abundance (log10)” value turned out to be 1.25.

In the case of “AAGATTTCATGGACCGGTTTTCCCGGTAATCCGTATTTGGA (site AAGATTTCTTC)”, the “recombinant UMI read abundance (log10)” value turned out to be 2.1.

“AAGCACGCATGGACCGGTTTTCCCGGTAATCCGTATTTGTG (site AAGCACGCTCA)”: the “recombinant UMI read abundance (log10)” value was 1.42.

In the case of “AAGCACGCATGGACCGGTTTTCCCGGTAATCCGTATTTGTG (site AAGCACGCTCC)”, the “recombinant UMI read abundance (log10)” value is 0.

On to “AAGCACGCATGGACCGGTTTTCCCGGTAATCCGTATTTGTG (site AAGCACGCTCG)”, for which the “recombinant UMI read abundance (log10)” value came out at 1.22.

Consider “AAGCACGCATGGACCGGTTTTCCCGGTAATCCGTATTTGTG (site AAGCACGCTCT)”, for which the “recombinant UMI read abundance (log10)” value was found to be 0.906.

In the case of “AAGCAGGCATGGACCGGTTTTCCCGGTAATCCGTATTTGGG (site AAGCAAGCTCC)”, the “recombinant UMI read abundance (log10)” value amounted to 0.00504.

Consider “AAGCAGGCATGGACCGGTTTTCCCGGTAATCCGTATTTGGG (site AAGCACGCTCC)”, for which the “recombinant UMI read abundance (log10)” value amounted to 0.0214.

For “AAGCAGGCATGGACCGGTTTTCCCGGTAATCCGTATTTGGG (site AAGCAGGCTCC)”, the “recombinant UMI read abundance (log10)” value is 0.367.

Consider “AAGCAGGCATGGACCGGTTTTCCCGGTAATCCGTATTTGGG (site AAGCATGCTCC)”, for which the “recombinant UMI read abundance (log10)” value was 0.00333.

On to “AAGCCAGCATGGACCGGTTTTCCCGGTAATCCGTATTTGGG (site AAGCCAGCTCC)”, for which the “recombinant UMI read abundance (log10)” value was found to be 0.00996.

For the sequence “AAGCGGGCATGGACCGGTTTTCCCGGTAATCCGTATTTGAC (site AAGCGGGCTGT)”, the “recombinant UMI read abundance (log10)” value is 1.62.

For “AAGCTGTCATGGACCGGTTTTCCCGGTAATCCGTATTTGAT (site AAGCTGTCTAT)”, the “recombinant UMI read abundance (log10)” value came to 0.353.

Take “AAGGACACATGGACCGGTTTTCCCGGTAATCCGTATTTGAG (site AAGGACACTCT)”: the “recombinant UMI read abundance (log10)” value amounted to 2.09.

As to “AAGGACGCATGGACCGGTTTTCCCGGTAATCCGTATTTGGG (site AAGAACGCTCC)”, the “recombinant UMI read abundance (log10)” value is 0.307.

As to “AAGGACGCATGGACCGGTTTTCCCGGTAATCCGTATTTGGG (site AAGCACGCTCC)”, the “recombinant UMI read abundance (log10)” value was determined as 0.0166.

On to “AAGGACGCATGGACCGGTTTTCCCGGTAATCCGTATTTGGG (site AAGGACGCTCC)”, for which the “recombinant UMI read abundance (log10)” value came out at 0.789.

Turning to “AAGGACGCATGGACCGGTTTTCCCGGTAATCCGTATTTGGG (site AAGTACGCTCC)”, the “recombinant UMI read abundance (log10)” value is 0.0226.

Consider “AAGGATCCATGGACCGGTTTTCCCGGTAATCCGTATTTGGT (site AAGGATCCTAC)”, for which the “recombinant UMI read abundance (log10)” value is 0.373.

In the case of “AAGGGTCCATGGACCGGTTTTCCCGGTAATCCGTATTTGAT (site AAGGGTCCTAT)”, the “recombinant UMI read abundance (log10)” value is 0.0248.

On to “AAGGTCACATGGACCGGTTTTCCCGGTAATCCGTATTTGAG (site AAGGTCACTCT)”, for which the “recombinant UMI read abundance (log10)” value amounted to 1.55.

Consider “AAGGTCACATGGACCGGTTTTCCCGGTAATCCGTATTTGGA (site AAGGTCACTTC)”, for which the “recombinant UMI read abundance (log10)” value turned out to be 1.14.

“AAGGTGTCATGGACCGGTTTTCCCGGTAATCCGTATTTGAC (site AAAGTGTCTGT)”: the “recombinant UMI read abundance (log10)” value was 1.13.

Turning to “AAGGTGTCATGGACCGGTTTTCCCGGTAATCCGTATTTGAC (site AACGTGTCTGT)”, the “recombinant UMI read abundance (log10)” value turned out to be 0.678.

Regarding “AAGGTGTCATGGACCGGTTTTCCCGGTAATCCGTATTTGAC (site AAGGTGTCTGT)”, the “recombinant UMI read abundance (log10)” value was found to be 3.31.

For “AAGGTGTCATGGACCGGTTTTCCCGGTAATCCGTATTTGAC (site AATGTGTCTGT)”, the “recombinant UMI read abundance (log10)” value was found to be 0.

Consider “AAGTAATCATGGACCGGTTTTCCCGGTAATCCGTATTTGAG (site AAGTAATCTCT)”, for which the “recombinant UMI read abundance (log10)” value was 2.78.

With “AAGTAGGCATGGACCGGTTTTCCCGGTAATCCGTATTTGGC (site AAGTAGGCTGC)”, the “recombinant UMI read abundance (log10)” value was 2.2.

Regarding “AAGTAGGCATGGACCGGTTTTCCCGGTAATCCGTATTTGGC (site ACGTAGGCTGC)”, the “recombinant UMI read abundance (log10)” value was 1.04.

“AAGTAGGCATGGACCGGTTTTCCCGGTAATCCGTATTTGGC (site AGGTAGGCTGC)”: the “recombinant UMI read abundance (log10)” value was found to be 0.265.

With “AAGTAGGCATGGACCGGTTTTCCCGGTAATCCGTATTTGGC (site ATGTAGGCTGC)”, the “recombinant UMI read abundance (log10)” value came out at 1.41.

As to “AAGTCGCCATGGACCGGTTTTCCCGGTAATCCGTATTTGAC (site AAGTCGCCTGT)”, the “recombinant UMI read abundance (log10)” value was 0.

As to “AAGTGCACATGGACCGGTTTTCCCGGTAATCCGTATTTGGT (site AAGTGCACTAC)”, the “recombinant UMI read abundance (log10)” value was determined as 0.762.
